Reference: patent publication US9708316B2 (BRISTOL-MYERS SQUIBB COMPANY, priority 2014, dated 2017)

How the values were obtained:
HIS-TGFβR2 WT = HIS-TGFβR2 WT (Homo sapiens, UniProt P37173); assay: HTRF probe-displacement assay, HIS-TGFβR2 WT; format: binding
HIS-TGFβR1 T204D = target: T1, HIS-TGFβR1 T204D (Homo sapiens, UniProt P36897, T204D); assay: HTRF probe-displacement assay, HIS-TGFβR1 T204D; format: binding; details: read-out: TGFβR1 (μM) IC50
T1 sequence (P36897 34-503 T204D): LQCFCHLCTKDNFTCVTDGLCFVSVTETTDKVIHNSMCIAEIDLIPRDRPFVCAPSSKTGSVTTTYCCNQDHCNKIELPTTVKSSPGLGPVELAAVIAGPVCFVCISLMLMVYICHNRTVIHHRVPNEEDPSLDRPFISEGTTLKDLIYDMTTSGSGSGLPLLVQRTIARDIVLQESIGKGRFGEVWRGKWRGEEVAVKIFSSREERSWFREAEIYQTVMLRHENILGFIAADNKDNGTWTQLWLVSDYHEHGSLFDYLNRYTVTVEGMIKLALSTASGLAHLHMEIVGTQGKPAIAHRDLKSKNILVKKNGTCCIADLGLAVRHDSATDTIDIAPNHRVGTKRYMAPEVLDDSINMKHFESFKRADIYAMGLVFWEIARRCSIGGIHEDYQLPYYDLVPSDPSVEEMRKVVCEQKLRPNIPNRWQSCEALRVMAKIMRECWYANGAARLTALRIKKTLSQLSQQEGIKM

Chain of HIS-TGFβR2 WT (P37173 23-567): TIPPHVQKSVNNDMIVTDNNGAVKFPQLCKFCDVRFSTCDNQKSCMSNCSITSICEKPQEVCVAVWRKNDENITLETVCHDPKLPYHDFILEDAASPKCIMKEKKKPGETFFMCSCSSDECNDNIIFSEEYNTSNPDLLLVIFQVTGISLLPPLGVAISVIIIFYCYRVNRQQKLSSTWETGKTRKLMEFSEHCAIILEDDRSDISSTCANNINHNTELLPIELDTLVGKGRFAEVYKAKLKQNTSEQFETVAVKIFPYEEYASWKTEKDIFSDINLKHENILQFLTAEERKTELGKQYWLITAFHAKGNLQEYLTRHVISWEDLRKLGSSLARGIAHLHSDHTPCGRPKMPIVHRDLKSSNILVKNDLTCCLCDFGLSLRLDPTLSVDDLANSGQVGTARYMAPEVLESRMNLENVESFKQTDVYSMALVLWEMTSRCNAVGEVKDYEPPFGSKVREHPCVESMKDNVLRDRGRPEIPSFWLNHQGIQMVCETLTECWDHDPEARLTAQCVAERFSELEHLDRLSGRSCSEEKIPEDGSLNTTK

Row | Structure (SMILES) | IC50 (HIS-TGFβR2 WT) [µM] | IC50 (HIS-TGFβR1 T204D) [µM]
1 | CC(=O)Nc1cc(-c2[nH]c3cccnc3c2-c2cnc(F)c(C)c2)ccn1 [Example 11, N-{4-[3-(6-Fluoro-5-methylpyridin-3-yl)-1H-pyrrolo[3,2-b]pyridin-2-yl]pyridin-2-yl}acetamide] | 0.009 | 0.027
2 | CC(=O)Nc1cc(-c2[nH]c3cccnc3c2-c2ccc(F)c(C)n2)ccn1 [Example 23, N-{4-[3-(5-Fluoro-6-methylpyridin-2-yl)-1H-pyrrolo[3,2-b]pyridin-2-yl]pyridin-2-yl}acetamide] | 0.68 | 0.003
3 | COc1ccc(-c2c(-c3ccnc(NC(=O)CN4CCN(CCO)CC4)c3)[nH]c3cccnc23)cn1 [Example 288, 2-(4-(2-Hydroxyethyl)piperazin-1-yl)-N-(4-(3-(6-methoxypyridin-3-yl)-1H-pyrrolo[3,2-b]pyridin-2-yl)pyridin-2-yl)acetamide] | 0.487 | 0.002
4 | COc1ccc(-c2c(-c3ccnc(NC(C)=O)c3)n(C)c3cccnc23)cn1 [Example 54, N-{4-[3-(6-Methoxypyridin-3-yl)-1-methyl-1H-pyrrolo[3,2-b]pyridin-2-yl]pyridin-2-yl}acetamide] | 3.61 | 0.021
5 | CC(=O)Nc1cc(-c2[nH]c3cccnc3c2-c2cccc(OC(F)F)n2)ccn1 [Example 174, N-(4-(3-(6-(Difluoromethoxy)pyridin-2-yl)-1H-pyrrolo[3,2-b]pyridin-2-yl)pyridin-2-yl)acetamide] | > 15 | 0.0034
6 | COc1ccc(-c2c(-c3ccnc(NC(C)=O)c3)[nH]c3cc(C(O)C(F)(F)F)cnc23)nc1 (stereo not drawn) [Example 297, N-(4-(3-(5-Methoxypyridin-2-yl)-6-(2,2,2-trifluoro-1-hydroxyethyl)-1H-pyrrolo[3,2-b]pyridin-2-yl)pyridin-2-yl)acetamide] | 4.33 | 0.004
7 | COc1ccc(-c2c(-c3ccnc(NC(=O)CN4CCN(C)CC4)c3)[nH]c3cc(Cl)cnc23)cn1 [Example 292, N-(4-(6-chloro-3-(6-methoxypyridin-3-yl)-1H-pyrrolo[3,2-b]pyridin-2-yl)pyridin-2-yl)-2-(4-methylpiperazin-1-yl)acetamide] | 1.51 | 0.001
8 | COc1ccc(-c2c(-c3ccnc(NC(C)=O)c3)[nH]c3c(Cl)ccnc23)nc1 [Example 62, N-{4-[7-Chloro-3-(5-methoxypyridin-2-yl)-1H-pyrrolo[3,2-b]pyridin-2-yl]pyridin-2-yl}acetamide] | > 15 | 0.009
9 | O=C(CN1CCOCC1)Nc1cc(-c2[nH]c3cc(Cl)cnc3c2-c2ccc(F)cn2)ccn1 [Example 74, N-{4-[6-Chloro-3-(5-fluoropyridin-2-yl)-1H-pyrrolo[3,2-b]pyridin-2-yl]pyridin-2-yl}-2-(morpholin-4-yl)acetamide] | 2.6 | 0.001
10 | CC(=O)Nc1cc(-c2[nH]c3cc(F)cnc3c2-c2ncc(C(F)F)s2)ccn1 [Example 182, N-(4-(3-(5-(Difluoromethyl)thiazol-2-yl)-6-fluoro-1H-pyrrolo[3,2-b]pyridin-2-yl)pyridin-2-yl)acetamide] | > 15 | 0.182
11 | CC(=O)Nc1cc(-c2[nH]c3c(N4CCCC4)ccnc3c2-c2cccc(C(F)F)n2)ccn1 [Example 156, N-(4-{3-[6-(Difluoromethyl)pyridin-2-yl]-7-(pyrrolidin-1-yl)-1H-pyrrolo[3,2-b]pyridin-2-yl}pyridin-2-yl)acetamide] | > 15 | 0.188
12 | CC(=O)Nc1cc(-c2[nH]c3c(C(C)O)ccnc3c2-c2ccc(F)cn2)ccn1 (stereo not drawn) [Example 265, N-(4-(3-(5-Fluoropyridin-2-yl)-7-(1-hydroxyethyl)-1H-pyrrolo[3,2-b]pyridin-2-yl)pyridin-2-yl)acetamide] | 1.05 | 0.004
13 | COc1ccc(-c2c(-c3ccnc(NC(C)=O)c3)[nH]c3c(OC)ccnc23)cn1 [Example 269, N-(4-(7-Methoxy-3-(6-methoxypyridin-3-yl)-1H-pyrrolo[3,2-b]pyridin-2-yl)pyridin-2-yl)acetamide] | 1.04 | 0.067
14 | COC(=O)Nc1cc(-c2[nH]c3cc(OC)cnc3c2-c2ccc(OC)cn2)ccn1 [Example 124, Methyl N-{4-[6-methoxy-3-(5-methoxypyridin-2-yl)-1H-pyrrolo[3,2-b]pyridin-2-yl]pyridin-2-yl}carbamate] | 12.8 | 0.001
15 | COc1ccc(-c2c(-c3ccnc(NC(C)=O)c3)[nH]c3cc(CN)cnc23)cn1 [Example 79, N-(4-(6-(Aminomethyl)-3-(6-methoxypyridin-3-yl)-1H-pyrrolo[3,2-b]pyridin-2-yl)pyridin-2-yl)acetamide] | 0.16 | 0.007
16 | COc1ccc(-c2c(-c3ccnc(NC(C)=O)c3)[nH]c3c(C(=O)NC(CO)CO)cc(Cl)nc23)cn1 [Example 58, 5-Chloro-N-(1,3-dihydroxypropan-2-yl)-2-(2-acetamidopyridin-4-yl)-3-(6-methoxypyridin-3-yl)-1H-pyrrolo[3,2-b]pyridine-7-carboxamide] | 9.23 | 0.017
17 | COc1cnc2c(-c3nc(C)ccc3F)c(-c3ccnc(NC(C)=O)c3)[nH]c2c1 [Example 111, N-(4-(3-(3-Fluoro-6-methylpyridin-2-yl)-6-methoxy-1H-pyrrolo[3,2-b]pyridin-2-yl)pyridin-2-yl)acetamide] | 2.42 | 0.002
18 | CC(=O)Nc1cc(-c2[nH]c3cc(Cl)cnc3c2-c2ncc(Cl)s2)ccn1 [Example 168, N-(4-(6-Chloro-3-(5-chlorothiazol-2-yl)-1H-pyrrolo[3,2-b]pyridin-2-yl)pyridin-2-yl)acetamide] | 1.19 | 0.0138
19 | CC(=O)Nc1cc(-c2[nH]c3c(C(C)O)ccnc3c2-c2nc(C)cs2)ccn1 (stereo not drawn) [Example 232, N-(4-(7-(1-Hydroxyethyl)-3-(4-methylthiazol-2-yl)-1H-pyrrolo[3,2-b]pyridin-2-yl)pyridin-2-yl)acetamide] | 0.115 | 0.003
20 | [2H]C([2H])([2H])Oc1ccc(-c2c(-c3ccnc(NC(C)=O)c3)[nH]c3cc(Cl)cnc23)nc1 [Example 105, N-(4-(6-Chloro-3-(5-(methoxy-d3)pyridin-2-yl)-1H-pyrrolo[3,2-b]pyridin-2-yl)pyridin-2-yl)acetamide] | > 15 | 0.005
21 | CC(=O)Nc1cc(-c2[nH]c3cccnc3c2-c2ccc3[nH]ccc3c2)ccn1 [Example 20, N-{4-[3-(1H-Indol-5-yl)-1H-pyrrolo[3,2-b]pyridin-2-yl]pyridin-2-yl}acetamide] | 1.69 | 0.005
22 | CC(=O)Nc1cc(-c2[nH]c3cccnc3c2-c2cccc(C#N)n2)ccn1 [Example 15, N-{4-[3-(6-Cyanopyridin-2-yl)-1H-pyrrolo[3,2-b]pyridin-2-yl]pyridin-2-yl}acetamide] | 13.1 | 0.017
23 | COc1ccc(-c2c(-c3ccnc(NC(C)=O)c3)[nH]c3ccc(OC)nc23)cn1 [Example 76, N-(4-(5-Methoxy-3-(6-methoxypyridin-3-yl)-1H-pyrrolo[3,2-b]pyridin-2-yl)pyridin-2-yl)acetamide] | 0.93 | 0.016
24 | CC(=O)Nc1cc(-c2[nH]c3c(C4CCN(C)CC4)ccnc3c2-c2cccc(C(F)F)n2)ccn1 [Example 137, N-(4-{3-[6-(Difluoromethyl)pyridin-2-yl]-7-(1-methylpiperidin-4-yl)-1H-pyrrolo[3,2-b]pyridin-2-yl}pyridin-2-yl)acetamide] | > 15 | 0.058
25 | CC(=O)Nc1cc(-c2[nH]c3c(C(C)O)ccnc3c2-c2nc(C(F)(F)F)cs2)ccn1 (stereo not drawn) [Example 231, N-(4-(7-(1-Hydroxyethyl)-3-(4-(trifluoromethyl)thiazol-2-yl)-1H-pyrrolo[3,2-b]pyridin-2-yl)pyridin-2-yl)acetamide] | 9.11 | 0.001
26 | COC(=O)Nc1cc(-c2[nH]c3cc(Cl)cnc3c2-c2ccc(OC)cn2)ccn1 [Example 87, Methyl N-{4-[6-chloro-3-(5-methoxypyridin-2-yl)-1H-pyrrolo[3,2-b]pyridin-2-yl]pyridin-2-yl}carbamate] | > 15 | 0.002
27 | CC(=O)Nc1cc(-c2[nH]c3cc(Cl)cnc3c2-c2nc(C(F)F)cs2)ccn1 [Example 172, N-(4-(6-Chloro-3-(4-(difluoromethyl)thiazol-2-yl)-1H-pyrrolo[3,2-b]pyridin-2-yl)pyridin-2-yl)acetamide] | 3.98 | 0.0004
28 | CC(=O)Nc1cc(-c2[nH]c3cccnc3c2-c2nccc(C)n2)ccn1 [Example 195, N-(4-(3-(4-Methylpyrimidin-2-yl)-1H-pyrrolo[3,2-b]pyridin-2-yl)pyridin-2-yl)acetamide] | > 15 | 0.0048
29 | CC(=O)Nc1cc(-c2[nH]c3cccnc3c2-c2ccc(C(F)(F)F)nc2)ccn1 [Example 13, N-(4-{3-[6-(Trifluoromethyl)pyridin-3-yl]-1H-pyrrolo[3,2-b]pyridin-2-yl}pyridin-2-yl)acetamide] | > 15 | 0.002
30 | CCC(O)c1ccnc2c(-c3ccc(OC)nc3)c(-c3ccnc(NC(C)=O)c3)[nH]c12 (stereo not drawn) [Example 301, N-(4-(7-(1-Hydroxypropyl)-3-(6-methoxypyridin-3-yl)-1H-pyrrolo[3,2-b]pyridin-2-yl)pyridin-2-yl)acetamide] | 0.031 | 0.001
